Test results from patent publication US20070155659A1, “Use of somatostatin or one of its analogues for preparing a medicament intended to regulate the ovarian follicular reserve in non-menopausal women” (Societe de Conseils de Recherches et D'Application, priority 2003, published 2007).
Where a SMILES comes first, the peptide text is derived from it. [ ]: non-standard residue; d: D form. Tic = O=C(O)[C@@H]1Cc2ccccc2CN1; Abu = CC[C@H](N)C(=O)O

Legend:
[1] = test system: primordial follicles of ovarian cortex; assay: Culture of ewe ovarian cortex fragments for 10 days: start of growth of primordial follicles; type: cell-based; conditions: for start of growth of the primordial follicles: 10 days culture, vs control fragments; for number of primary follicles / number of primordial follicles over time: D0-D10
Procedure: Ovaries of adult ewes are collected immediately after slaughter. The ovaries are placed in an organ transport medium without serum (X-vivo, Bio Whittaker, Walkersville, Md., USA) at 10° C. and transported to the laboratory. Approximately 1 h after removal, the cortex is isolated from the medulla then fractionated into slices of 2 mm thickness (1 cm^2, average weight of 212 mg) after rinsing in new X-vivo. The cortex fragments are cultured in an oven under 5% oxygen for 10 days in well plates in the presence of DMEM. The medium is changed every 2 days.
The procedure used is the same as for Example 1, except that the somatostatin is replaced with one of its agonist analogues, namely the synthetic peptide of formula c[Tic-Tyr-DTrp-Lys-Abu-Phe] (hereafter AG1 peptide).
The procedure used is the same as for Example 1, except that the somatostatin is replaced by one of its antagonist analogues, namely the synthetic peptide of formula Cpa-c(DCys-3-Pal-DTrp-NMeLys-Thr-Cys)-2-Nal-NH2 (hereafter ANT1 peptide).

granulosa cells [2] = conditions: in vitro, model of granulosa cells; cited from earlier work
[3] = co-administered with FSH; infertile patients with polycystic ovary syndrome; cited from earlier work
preovulatory oocyte = conditions: pigs; cited from earlier work
granulosa cells [4] = conditions: pig granulosa cells; cited from earlier work
[5] = test system: pituitary cells producing LH and FSH; preovulatory follicles; conditions: rats, in vivo administration; cited from earlier work
[6] = women, in vivo; cited from earlier work
[7] = test system: granulosa cells from preovulatory follicles; conditions: women, in vitro; cited from earlier work
[8] = Envisaged case: patient with polycystic ovary syndrome treated with lanreotide acetate; type: in vivo, women; conditions: 120 mg/month

CC[C@@H]1NC(=O)[C@H](CCCCN)NC(=O)[C@@H](Cc2c[nH]c3ccccc23)NC(=O)[C@H](Cc2ccc(O)cc2)NC(=O)[C@@H]2Cc3ccccc3CN2C(=O)[C@H](Cc2ccccc2)NC1=O [AG1 peptide, c[Tic-Tyr-DTrp-Lys-Abu-Phe]] (cyclo([Tic]Y[dW]K[Abu]F))
start of growth of the primordial follicles ([1]; AG1 peptide 10^−9 M, FIG. 4): very significantly inhibits | number of primary follicles ([1]; AG1 peptide 10^−9 M, FIG. 4): absence of increase | number of primordial follicles over time ([1]; AG1 peptide 10^−9 M, FIG. 4): maintenance over time

C[C@H](N)C(=O)NCC(=O)N[C@H]1CSSC[C@@H](C(=O)O)NC(=O)[C@H](CO)NC(=O)[C@H]([C@@H](C)O)NC(=O)[C@H](Cc2ccccc2)NC(=O)[C@H]([C@@H](C)O)NC(=O)[C@H](CCCCN)NC(=O)[C@H](Cc2c[nH]c3ccccc23)NC(=O)[C@H](Cc2ccccc2)NC(=O)[C@H](Cc2ccccc2)NC(=O)[C@H](CC(N)=O)NC(=O)[C@H](CCCCN)NC1=O [SST14]
start of growth of the primordial follicles ([1]; SST14 10^−9 M to 10^−6 M, FIGS. 1 and 2): very significantly inhibits | number of primordial follicles over time ([1]; SST14 10^−9 M to 10^−6 M, FIG. 1): maintenance over time | number of primary follicles ([1]; SST14 10^−9 M to 10^−6 M, FIG. 2): absence of increase

C[C@H](N)C(=O)NCC(=O)N[C@H]1CSSC[C@@H](C(=O)O)NC(=O)[C@H](CO)NC(=O)[C@H]([C@@H](C)O)NC(=O)[C@H](Cc2ccccc2)NC(=O)[C@H]([C@@H](C)O)NC(=O)[C@H](CCCCN)NC(=O)[C@H](Cc2c[nH]c3ccccc23)NC(=O)[C@H](Cc2ccccc2)NC(=O)[C@H](Cc2ccccc2)NC(=O)[C@H](CC(N)=O)NC(=O)[C@H](CCCCN)NC1=O [SST]
aromatase and production of progesterone, stimulated by FSH (granulosa cells [2]): inhibits | follicle growth induced by the administration of FSH [3]: not however accompanied by a significant impact | nuclear maturation of the preovulatory oocyte (preovulatory oocyte): seems to inhibit | increase in cAMP induced by LH and forskolin (granulosa cells [4]): inhibits | number of pituitary cells producing LH and FSH and number of preovulatory follicles in the ovary [5]: seems to reduce | secretion of LH by the pituitary, production of androgens and IGF-1 serum levels [6]: capable of reducing | serum levels of IGF-BP3 [6]: increases | synthesis of IGF-BP1 and of progesterone [7]: inhibiting

CC(C)[C@@H]1NC(=O)[C@H](CCCCN)NC(=O)[C@@H](Cc2c[nH]c3ccccc23)NC(=O)[C@H](Cc2ccc(O)cc2)NC(=O)[C@@H](NC(=O)[C@H](N)Cc2ccc3ccccc3c2)CSSC[C@@H](C(=O)N[C@H](C(N)=O)[C@@H](C)O)NC1=O [lanreotide acetate]
ovarian volume and number of antral follicles (ultrasound) ([8]; 4th month of treatment): reduction | pregnancy test ([8]; 8th month of treatment): positive | periods ([8]; after 3 months of treatment): spontaneous periods
